Assay results reported in US9056119B2, “VEGF production promoter” (Kao Corporation, priority 2010, dated 2015).

System: VEGF
Test: Effect on production of VEGF: amount of VEGF secreted in culture supernatant, determined by ELISA
Assay type: cell-based
Conditions: normal human newborn preputial epidermal keratinocytes (NHEK), 16 hours, control defined as 1
Procedure: Normal human newborn preputial epidermal keratinocytes (Kurabo Industries Ltd.: frozen NHEK (F) Lot. No. 061130-902) were used in a test. The cells were inoculated into three six-well microplates at 2×10^4 cells/mL per well. Culture was carried out in Defined keratinocyte-SFM (SFM medium, Gibco) under conditions of 2% CO2 and 37° C. After the cell density reached 50 to 60% confluence, the medium was exchanged for additive-free Defined keratinocyte-SFM medium (SFM (−) medium). The cells were conditioned to the SFM (−) medium for 24 hours, and the medium was then exchanged for an SFM (−) medium supplemented with an arbitrary concentration of the triterpenoid saponin obtained in Example 1. Then, the test was started.
It should be noted that a compound-free SFM (−) medium was used as a negative control. 16 hours after the start of the test, the media were collected, and the amounts of VEGF secreted in the supernatants of the cultures were determined using an ELISA kit (R&D Systems). The amount of VEGF produced in the control was defined as 1, and relative values to the control value were used for evaluation.

Compound	Relative value of secreted VEGF amount (20 μg/mL)	Relative value of secreted VEGF amount (100 μg/mL)	Relative value of secreted VEGF amount (200 μg/mL)
CC(=O)O[C@H]([C@H]1C[C@@H](C)[C@H]2[C@@](O)(O1)[C@H](O)[C@@]1(C)C3=CCC4C(C)(C)[C@@H](O[C@@H]5OC[C@@H](O)[C@@H](O)C5O)CC[C@@]45C[C@@]35CC[C@]21C)C(C)(C)O (stereo partly drawn) [Compound 1, 7,8-Didehydro-24-O-acetylhydroshengmanol-3-O-β-xyloside]	2.19	3.65	5.69
C[C@@H]1C[C@H]2O[C@]3(O[C@H]2C(C)(C)O)[C@H]1[C@@]1(C)CC[C@@]24C[C@@]25CC[C@H](O[C@@H]2OC[C@@H](O)[C@@H](O)C2O)C(C)(C)C5CC=C4[C@]1(C)[C@H]3O (stereo partly drawn) [Compound 2, 24-epi-7,8-Didehydrocimigenol-3-xyloside]	2.32	0.40	
C[C@H](CC(=O)C1OC1(C)C)[C@H]1C(=O)C[C@@]2(C)C3=CCC4C(C)(C)[C@@H](O[C@@H]5OC[C@@H](O)[C@@H](O)C5O)CC[C@@]45C[C@@]35C(O)C[C@]12C (some centres unmarked) [Compound 3, Cimicifugoside H-1]	1.19	2.50	2.82
